Measured values as given in US9688989B2, “H4 receptor inhibitors for treating tinnitus” (SENSORION, priority 2012, dated 2017).

Legend:
[1] = system: tinnitus induced by sodium salicylate or noise exposure; assay: Gap-Prepulse Inhibition of Acoustic Startle (GPIAS) behavioral model of tinnitus; assay type: in vivo, adult rats; conditions: rats, single i.p. administration, versus pre-treatment or vehicle
Description: The aim of these in vivo tests is to measure the efficacy of H4R antagonists to decrease (transient and permanent) tinnitus symptoms induced either by sodium salicylate or by high level noise exposure. Evaluation of efficacy is performed in adult rats using the tinnitus test developed by Turner et al. 2006: the Gap-Prepulse Inhibition of Acoustic Startle (GPIAS) behavioral model. This model uses a gap in a constant acoustic background as a pre-stimulus that reduces the acoustic startle reflex amplitude. Rats perceiving tinnitus in a specific frequency have decreased detection of gap embedded in bands similar to the tinnitus frequency. Reduction of the gating efficiency of the gap produces a larger acoustic startle (reduced GPIAS). The level of GPIAS is measured in baseline condition in a cohort of 6 to 8 adult rats. Tinnitus is induced by an i.p administration of sodium salicylate (250 mg/kg) and GPIAS is measured at […] post-induction to measure the reduction in GPIAS (attesting presence of tinnitus). Rats are treated with H4R antagonists (single i.p. administration) or with the vehicle the same day and GPIAS is measured at different time points according to the PK profile of the compounds Alternatively, tinnitus is induced by a unilateral exposure to a 12 kHz narrow band noise presented at 120-126 dB SPL (the contralateral ear is protected with an ear plug) for 2h. […]

[2] = system: spiral ganglion neurons (SGNs); assay: Whole-cell current-clamp recordings of step-evoked action potentials in dissociated spiral ganglion neurons; assay type: cell-based, Wistar rats; conditions: for inhibition at 0.1 µM / inhibition at 100 µM: Rattus norvegicus, Neuron, read-out: inhibition of frequency of A.P firing; for inhibition at 0.1 µM / resting membrane potential, difference versus control: 100 nM; for amplitude of the first spike / frequency of spikes and amplitude of the first spike: transient spikers SGNs; for inhibition at 100 µM / amplitude of the first spike: 100 μM; for frequency of spikes and amplitude of the first spike: all concentration tested
Description: The head of 5-8 days old Wistar rats (CERJ, Le Genest, Berthevin, France) was hemi-sectioned aseptically and the cochlea dissected from the temporal bone. In L15 (Leibovitz) medium (Gibco) medium, the cochlear bone was gently removed using fine forceps to isolate the sensorineural tissue. The spiral ganglion was separated from the organ of Corti just before the habenula perforata, and enzymatically (collagenase 0.75 mg·mL^−1, dispase 1 mg·mL^−1 and DNAse 0.75 mg·mL^−1) dissociated for 15 min at 25° C. After washing thoroughly with a Tyrode's solution (Sigma), a transfer pipette was used to gently dissociate the ganglion neurons in culture medium (DMEM/F-12 medium 1:1, 2% N2 nutrient, 28 mM Glc, 1.5 mM Gln, 15 mM HEPES, 2 μM AraC, 10 ng mL-1 BDNF and 1% penicillin/streptomycin). The spiral ganglion neurons were plated onto culture dishes previously coated with 10 ug·mL-1 laminin (Sigma). These low density cultures were maintained at 37° C. in 5% CO2 for 3 to 5 days prior whole cell patch-clamp experiments.
Efficacy of H4R antagonist has been tested using two patch clamp technics: whole-cell current-clamp recordings with dissociated spiral ganglion neurons (SGNs) and loose-patch recordings for SGNs in semi-intact cochlea preparations. For these experiments postnatal day (P) 10-14 Wistar rats were used at DIV2-5.
All experiments were performed using an Axopatch 200B amplifier. Traces were low-pass filtered at 10-20 kHz, and digitized at 100 kHz with a Digidata 1440A board. Data were stored with PClamp10.2 software (Axon Instruments; Molecular Devices Corp., USA) and were analyzed off-line using Clampfit 10.2 (Molecular Devices) and Origin 8 (OriginLab) softwares.
The recording solution contained (in mM): NaCl 135, HEPES 10, glucose 10, MgCl2 1, KCl 5, and CaCl2 2.5, (pH 7.35). For whole-cell patch clamp recordings, recording glass pipettes (4-6 MΩ) were coated with Wax to reduce pipette capacitance and were filled with (in mM): KCl 135, HEPES 10, glucose 10, NaCl 5, EGTA 5, Mg-ATP 3, GTP-Na 1, pH 7.35. For these solutions a minor 3.7 mV liquid junction potential could be measured but membrane voltages were not corrected for it. The osmolarity of all solutions was adjusted to 300 mOsm/L. The control and test solutions were applied using a multiple capillary perfusion system (flow rate˜500 μl/min). After each application of the tested drug, the cells were washed with control buffer.
Recordings were performed at room temperature (RT; 22-25° C.). In dissociated neurons, a 150-200 pA DC square current (1 s duration) was applied every 6 s in order to elicit trains of action potentials. The pharmacological tests were conducted only when recordings presented the following criteria: series resistance (<10 MΩ on average) no more than 3 times the pipette resistance, stable resting membrane potential (R.M.P) negative to −40 mV, overshooting action potentials (magnitude >60 mV for the first action potential), stable firing for up to a minute in control condition.
Two concentrations have been tested: 100 μM and 100 nM.
Typically, in dissociated SGNs, (FIG. 2A1) small depolarizing current steps (0.1 nA-0.4 nA) evoked two types of action potential discharge: transient (no more than 1-2 spikes-rapidly adapting neurons) and sustained firing (number of spikes increasing linearly above threshold-slowly adapting neurons) (FIG. 2A2). Transient spikers SGNs represented the majority of neurons in our cell cultures (80% versus 20% of sustained spikers neurons).

[3] = system: spiral ganglion neurons (SGNs) in semi-intact cochlea preparation; assay: Loose-patch recordings of spontaneous action potentials in semi-intact cochlea preparation; assay type: cell-based, Wistar rats; conditions: 100 μM bath application, within two minutes, two experiments
Description: For this preparation postnatal day (P) 10-14 Wistar rats were used. First steps of the protocol were similar to the cell culture one until the cochlea was freed from the cochlear bone. Cochlear turns (apical and middle) were dissected and isolated in sterile-filtered L-15 (Leibovitz) Medium. Explants were plated upside down (spiral ganglion neurons on top) on 10 μl of growth factor-reduced Matrigel (BD biosciences) and laminin (10 μg/ml)-coated glass coverslips. These preparations were first incubated for 30 min at 37° C. in a 95%/5% 02/CO2 atmosphere and then cultured for 2 to 5 days in vitro in (50%) F12/(50%) DMEM (Invitrogen) supplemented with (2%) N2 nutrient (Fisher Scientific). […]
All experiments were performed using an Axopatch 200B amplifier. […] Data were stored with PClamp10.2 software (Axon Instruments; Molecular Devices Corp., USA) and were analyzed off-line using Clampfit 10.2 (Molecular Devices) and Origin 8 (OriginLab) softwares.
The recording solution contained (in mM): NaCl 135, HEPES 10, glucose 10, MgCl2 1, KCl 5, and CaCl2 2.5, (pH 7.35). […] For these solutions a minor 3.7 mV liquid junction potential could be measured but membrane voltages were not corrected for it. […]
In these semi-intact cochlea preparations, spontaneous discharges of action potential were directly recorded. […] In vitro results were expressed as means±S.E.M. […]

human H3 receptor = biological target: T1, human H3 receptor (Homo sapiens, UniProt Q9Y5N1); conditions: radioligand binding; cited from earlier work
T1 construct: expressed in transfected cells; host or cells: SK-N-MC or HEK293 T
T1 sequence (Q9Y5N1 whole entry): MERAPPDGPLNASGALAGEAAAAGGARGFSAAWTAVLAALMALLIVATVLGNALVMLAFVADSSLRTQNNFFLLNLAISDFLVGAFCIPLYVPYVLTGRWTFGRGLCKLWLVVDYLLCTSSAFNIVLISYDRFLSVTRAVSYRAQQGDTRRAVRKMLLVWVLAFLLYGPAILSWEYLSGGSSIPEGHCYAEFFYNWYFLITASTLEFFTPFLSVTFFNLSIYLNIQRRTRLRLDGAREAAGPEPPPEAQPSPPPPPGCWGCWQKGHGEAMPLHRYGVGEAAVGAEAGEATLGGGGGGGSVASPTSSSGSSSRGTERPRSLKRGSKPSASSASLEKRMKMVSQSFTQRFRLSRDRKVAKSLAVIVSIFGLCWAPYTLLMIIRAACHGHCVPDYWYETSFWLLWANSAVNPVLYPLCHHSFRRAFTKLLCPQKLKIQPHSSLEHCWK

Row | SMILES | GPIAS values [1] | inhibition at 0.1 µM ([2]; sustained SGNs) [%] | inhibition at 100 µM ([2]; sustained SGNs) [%] | resting membrane potential, difference versus control ([2]; sustained SGNs) [mV] | amplitude of the first spike [2] [mV] | frequency of spikes and amplitude of the first spike [2] | spontaneous (synaptically driven) action potential discharge [3] | resting membrane potential, increase versus control ([2]; sustained SGNs, high concentration (100 μM)) [mV] | Kd (human H3 receptor) [nM]
1 | CN1CCN(C(=O)c2cc3cc(Cl)ccc3[nH]2)CC1 [JNJ7777120, 1-[(5-chloro-1H-indol-2-yl)carbonyl]-4-methylpiperazine] | Increase | 21.6 ± 1.7 | 69 ± 8 | 0.55±0.2 | 73.3±6.1 | unaffected |  |  | 
2 | CN1CCN(C(=O)c2nc3cc(Cl)ccc3[nH]2)CC1 [JNJ10191584, 1-[(5-chloro-1H-benzimidazol-2-yl)carbonyl]-4-methylpiperazine] | Increase | 25.2 ± 2 | 46.2 ± 12 | −0.13±0.4 | 83.7±5.2 | unaffected | fully abolished | 1.5±1 | 
3 | CNCCc1cnc[nH]1 [[^3H]N-a-methyl histamine] |  |  |  |  |  |  |  |  | 1
